Source: patent publication US4250178A, “Amides derived from carboxyl-5 pyrimidines” (Delalande S.A., priority 1978, dated 1981)
Structures can show the parent of a compound that is named as a salt.

Legend:
[1] = acute toxicity in mice, intraperitoneal (Miller and Tainter); details: mouse, in vivo, ip, read-out: Acute toxicity (mice) LD 50
Source text: The acute toxicity was studied in mice intraperitoneally and the lethal doses estimated according to the method described by Miller and Tainter in Proc. Soc. Exper.

[2] = system: apomorphine straightening; experiment: test of antagonism to apomorphine straightening in mice, intraperitoneal (Gouret); type: in vivo; details: Mus musculus, ip, read-out: Apomorphine straightening ED 50

In the case of `CCN(CC)CCNC(=O)c1cnc(N)nc1OC` [76.0745], the LD50 [1] is reported as 650 mg/kg and the ED50 [2] is reported as 30 mg/kg.

`CCN1CCCC1CNC(=O)c1cnc(N)nc1OC` (stereo not shown) [76.0843] gave an LD50 [1] of 300 mg/kg and an ED50 [2] of 6 mg/kg.

`COc1ccccc1N1CCN(CCNC(=O)c2cnc(N)nc2OC)CC1` [76.0994] showed an LD50 [1] of 150 mg/kg and an ED50 [2] of 3 mg/kg.

In the case of `COc1nc(N)ncc1C(=O)NC1CCN(Cc2ccccc2)CC1` [77.0208], the LD50 [1] is reported as 500 mg/kg and the ED50 [2] is reported as 3.5 mg/kg.

`CCN(CCNC(=O)c1cnc(N)nc1OC)Cc1ccccc1` [77.0489] gave an LD50 [1] of 330 mg/kg and an ED50 [2] of 3 mg/kg.

With `CCOc1nc(N)ncc1C(=O)NCCN(CC)CC` [77.0508] the LD50 [1] was 300 mg/kg and the ED50 [2] was 30 mg/kg.

`COc1nc(N)ncc1C(=O)NCCN(C)Cc1ccccc1` [77.0512, 1-[5-(2-amino 4-methoxypyrimidinyl)carboxamido] 2-[N-methyl N-benzylamino] ethane] gave an LD50 [1] of 400 mg/kg and an ED50 [2] of 10 mg/kg.

Compound `CCOc1nc(N)ncc1C(=O)NCC1CCCN1CC` (stereo not shown) [77.0540] has an LD50 [1] of 150 mg/kg and an ED50 [2] of 3 mg/kg.

With `COc1nc(N)ncc1C(=O)NCCNc1ccccc1` [77.0580] the LD50 [1] was 400 mg/kg and the ED50 [2] was 30 mg/kg.

Work on `CCCOc1nc(N)ncc1C(=O)NCC1CCCN1CC` (stereo not shown) [77.0621] yielded an LD50 [1] of 150 mg/kg and an ED50 [2] of 15 mg/kg.

`CCN(CC)CCNC(=O)c1cnc(C)nc1OC` [77.0766] showed an LD50 [1] of 300 mg/kg and an ED50 [2] of 12 mg/kg.

With `CCN1CCCC1CNC(=O)c1cnc(C)nc1OC` (stereo not shown) [77.0805] the LD50 [1] was 200 mg/kg and the ED50 [2] was 7 mg/kg.

Compound `CCN(CC)CCNC(=O)c1cnc(SC)nc1OC` [77.0806] has an LD50 [1] of 150 mg/kg and an ED50 [2] of 30 mg/kg.

With `CCN1CCCC1CNC(=O)c1cncnc1OC` (stereo not shown) [77.0807] the LD50 [1] was 300 mg/kg and the ED50 [2] was 18.5 mg/kg.

In the case of `CCN1CCCC1CNC(=O)c1cnc(SC)nc1OC` (stereo not shown) [77.0840], the LD50 [1] is reported as 95 mg/kg and the ED50 [2] is reported as 10 mg/kg.

`COc1nc(N)ncc1C(=O)NCCN1CCc2ccccc2C1` [77.0862, 1-[5-(2-amino 4-methoxypyrimidinyl)carboxamido] 2-[(tetrahydro 1,2,3,4)isoquinolin-2-yl] ethane] showed an LD50 [1] of 300 mg/kg and an ED50 [2] of 30 mg/kg.

`CCN1CCCC1CNC(=O)c1cnc(N)nc1OC(C)C` (stereo not shown) [77.0871] gave an LD50 [1] of 170 mg/kg and an ED50 [2] of 30 mg/kg.

Work on `CC(C)Oc1nc(N)ncc1C(=O)NC1CCN(Cc2ccccc2)CC1` [77.0872] yielded an LD50 [1] of 115 mg/kg and an ED50 [2] of 11 mg/kg.

In the case of `COc1nc(C)ncc1C(=O)NC1CCN(Cc2ccccc2)CC1` [77.0878], the LD50 [1] is reported as 150 mg/kg and the ED50 [2] is reported as 10 mg/kg.

`COc1nc(N)ncc1C(=O)NCC1CCCN1Cc1ccccc1` (stereo not shown) [77.0880] gave an LD50 [1] of 180 mg/kg and an ED50 [2] of 9 mg/kg.

Work on `COc1ncncc1C(=O)NC1CCN(Cc2ccccc2)CC1` [77.0886] yielded an LD50 [1] of 125 mg/kg and an ED50 [2] of 17.5 mg/kg.

Work on `COc1nc(N)ncc1C(=O)NC1CCN(Cc2ccccc2)C1` (stereo not shown) [77.0958] yielded an LD50 [1] of 150 mg/kg and an ED50 [2] of 1.5 mg/kg.

For `COc1nc(N)ncc1C(=O)NC1CCN(C2CCCCC2)C1` (stereo not shown) [77.1006], the LD50 [1] was 175 mg/kg and the ED50 [2] was 3 mg/kg.

Work on `COc1nc(N(C)C)ncc1C(=O)NC1CCN(Cc2ccccc2)CC1` [77.1011] yielded an LD50 [1] of 25 mg/kg and an ED50 [2] of 2.7 mg/kg.

Work on `CCCCN1CCCC1CNC(=O)c1cnc(N)nc1OC` (stereo not shown) [77.1012] yielded an LD50 [1] of 110 mg/kg and an ED50 [2] of 7 mg/kg.

With `COc1nc(N)ncc1C(=O)N1CC1` [77.1017] the LD50 [1] was 300 mg/kg and the ED50 [2] was 15 mg/kg.

In the case of `COc1nc(N)ncc1C(=O)NCC1CCCN1Cc1ccc(F)cc1` (stereo not shown) [77.1047], the LD50 [1] is reported as 130 mg/kg and the ED50 [2] is reported as 4.5 mg/kg.

Compound `CCN1CCCC1CNC(=O)c1cnc(N(C)C)nc1OC` (stereo not shown) [77.1057] has an LD50 [1] of 130 mg/kg and an ED50 [2] of 1.3 mg/kg.

In the case of `CCN(CC)CCNC(=O)c1cnc(N(C)C)nc1OC` [77.1075], the LD50 [1] is reported as 200 mg/kg and the ED50 [2] is reported as 16 mg/kg.

Compound `CCN1CCCC1CNC(=O)c1cnc(OC)nc1OC` (stereo not shown) [77.1243] has an LD50 [1] of 150 mg/kg and an ED50 [2] of 15 mg/kg.

`COc1ncc(C(=O)NC2CCN(Cc3ccccc3)CC2)c(OC)n1` [77.1244] showed an LD50 [1] of 180 mg/kg and an ED50 [2] of 10 mg/kg.

In the case of `CCN1CCCC1CNC(=O)c1cc(S(N)(=O)=O)ccc1OC` (stereo not shown) [SULPIRIDE, Sulpiride, reference compound], the ED50 [2] is reported as 37 mg/kg.

For `CCCN1CCCC1CNC(=O)c1cnc(N)nc1OC` (stereo not shown) [compound 771120], the LD50 [1] was 180 mg/kg and the ED50 [2] was 3.4 mg/kg.

In the case of `CCN1CCCC1CNC(=O)c1cnc(NC)nc1OC` (stereo not shown) [compound 771226], the LD50 [1] is reported as 110 mg/kg and the ED50 [2] is reported as 1.4 mg/kg.

`CNc1ncc(C(=O)NC2CCN(Cc3ccccc3)CC2)c(OC)n1` [compound 771261] showed an LD50 [1] of 70 mg/kg and an ED50 [2] of 2.4 mg/kg.

With `COc1nc(N)ncc1C(=O)NC1CCN(Cc2ccc(F)cc2)C1` (stereo not shown) [compound 771274] the LD50 [1] was 100 mg/kg and the ED50 [2] was 1.4 mg/kg.

Compound `COc1nc(N)ncc1C(=O)NCC1CCCN1C` (stereo not shown) [compound 780079] has an LD50 [1] of 225 mg/kg and an ED50 [2] of 11 mg/kg.

In the case of `COc1nc(C)ncc1C(=O)NCc1cccn1C` [compound 780204], the LD50 [1] is reported as 400 mg/kg and the ED50 [2] is reported as 50 mg/kg.

Compound `COc1nc(C)ncc1C(=O)NC1CCN(Cc2ccccc2)C1` (stereo not shown) [compound 780326] has an LD50 [1] of 130 mg/kg and an ED50 [2] of 5.8 mg/kg.

In the case of `CCN(CCNC(=O)c1cnc(C)nc1OC)Cc1ccccc1` [compound 780327], the LD50 [1] is reported as 170 mg/kg and the ED50 [2] is reported as 7 mg/kg.

For `CCOc1nc(C)ncc1C(=O)NCC1CCCN1CC` (stereo not shown) [compound 780336], the LD50 [1] was 170 mg/kg and the ED50 [2] was 1.8 mg/kg.

With `CCCOc1nc(C)ncc1C(=O)NCC1CCCN1CC` (stereo not shown) [compound 780432] the LD50 [1] was 170 mg/kg and the ED50 [2] was 7.5 mg/kg.

With `CCCCN1CCCC1CNC(=O)c1cnc(C)nc1OC` (stereo not shown) [compound 780457] the LD50 [1] was 160 mg/kg and the ED50 [2] was 17 mg/kg.

`COc1nc(C)ncc1C(=O)NCC1CCCN1Cc1ccccc1` (stereo not shown) [compound 780458] gave an LD50 [1] of 140 mg/kg and an ED50 [2] of 13 mg/kg.

`COc1nc(C)ncc1C(=O)NCC1CCCN1Cc1ccc(F)cc1` (stereo not shown) [compound 780505] gave an LD50 [1] of 155 mg/kg and an ED50 [2] of 15 mg/kg.

`COc1ccccc1N1CCN(CCNC(=O)c2cnc(C)nc2OC)CC1` [compound 780521] gave an LD50 [1] of 140 mg/kg and an ED50 [2] of 5.25 mg/kg.

`COc1nc(C)ncc1C(=O)NCCN1CCN(c2ccccc2)CC1` [compound 780522] showed an LD50 [1] of 130 mg/kg and an ED50 [2] of 10 mg/kg.

For `CCCN1CCCC1CNC(=O)c1cnc(C)nc1OC` (stereo not shown) [compound 780552], the LD50 [1] was 140 mg/kg and the ED50 [2] was 12.5 mg/kg.

Compound `COc1nc(C)ncc1C(=O)NC1CCN(Cc2ccc(F)cc2)C1` (stereo not shown) [compound 780560] has an LD50 [1] of 100 mg/kg and an ED50 [2] of 3 mg/kg.

`CCN1CCCC1CNC(=O)c1cnc(C)nc1OC(C)C` (stereo not shown) [compound 780561] gave an LD50 [1] of 170 mg/kg and an ED50 [2] of 3.3 mg/kg.

Compound `CCN1CCC[C@H]1CNC(=O)c1cnc(C)nc1OC` [compound 780648] has an LD50 [1] of 200 mg/kg and an ED50 [2] of 3.2 mg/kg.

`CCOc1nc(C)ncc1C(=O)NCCN(CC)Cc1ccccc1` [compound 780656] gave an LD50 [1] of 140 mg/kg and an ED50 [2] of 6 mg/kg.

In the case of `COc1nc(C)ncc1C(=O)NCC1CCCN1C` (stereo not shown) [compound 780680], the LD50 [1] is reported as 275 mg/kg and the ED50 [2] is reported as 7.2 mg/kg.

`COc1nc(C)ncc1C(=O)NCCN1CCN(c2ccc(F)cc2)CC1` [compound 780686] showed an LD50 [1] of 115 mg/kg and an ED50 [2] of 10 mg/kg.

For `CCCc1ncc(C(=O)NCC2CCCN2CC)c(OC)n1` (stereo not shown) [compound 780700], the LD50 [1] was 200 mg/kg and the ED50 [2] was 17 mg/kg.

`C=CCN1CCCC1CNC(=O)c1cnc(C)nc1OC` (stereo not shown) [compound 780784] gave an LD50 [1] of 280 mg/kg and an ED50 [2] of 5.5 mg/kg.

Work on `COc1nc(C)ncc1C(=O)NCC1CCCN1CC1CCCCC1` (stereo not shown) [compound 780836] yielded an LD50 [1] of 140 mg/kg and an ED50 [2] of 9 mg/kg.

Compound `CCN(CCNC(=O)c1cnc(C)nc1OC)CC1CCCCC1` [compound 780866] has an LD50 [1] of 120 mg/kg and an ED50 [2] of 4.7 mg/kg.

Work on `CCN(CCNC(=O)c1cnc(C)nc1OC)Cc1ccc(F)cc1` [compound 780886] yielded an LD50 [1] of 140 mg/kg and an ED50 [2] of 10 mg/kg.

For `CCOc1nc(C)ncc1C(=O)NCCN(CC)Cc1ccc(F)cc1` [compound 780887], the LD50 [1] was 140 mg/kg and the ED50 [2] was 1 mg/kg.

With `CCOc1nc(C)ncc1C(=O)NC[C@@H]1CCCN1CC` [compound 780905] the LD50 [1] was 175 mg/kg and the ED50 [2] was 0.88 mg/kg.

Work on `CCN1CCCC1CNC(=O)c1cnc(C(C)C)nc1OC` (stereo not shown) [compound 780907] yielded an LD50 [1] of 120 mg/kg and an ED50 [2] of 10 mg/kg.

`CCOc1nc(C)ncc1C(=O)NCC1CCCN1C` (stereo not shown) [compound 781017] gave an LD50 [1] of 150 mg/kg and an ED50 [2] of 4.1 mg/kg.

With `CCOc1nc(CC)ncc1C(=O)NCC1CCCN1C` (stereo not shown) [compound 781021, 4-ethoxy 2-ethyl 5-(1-methylpyrrolidin-2-yl)methylamino carbonyl pyrimidine, fumarate] the LD50 [1] was 115 mg/kg and the ED50 [2] was 10.5 mg/kg.

In the case of `CCOc1nc(CC)ncc1C(=O)NCC1CCCN1CC` (stereo not shown) [compound 781022], the LD50 [1] is reported as 140 mg/kg and the ED50 [2] is reported as 3 mg/kg.

With `CCOc1nc(N(C)C)ncc1C(=O)NC[C@@H]1CCCN1CC` [compound 781170] the LD50 [1] was 120 mg/kg and the ED50 [2] was 2.3 mg/kg.

With `CCN1CCC[C@H]1CNC(=O)c1cnc(N(C)C)nc1OC` [compound 781171] the LD50 [1] was 100 mg/kg and the ED50 [2] was 3 mg/kg.
